Laboratory results: the NIST ThermoML archive (doi:10.1016/j.jct.2014.07.018)

Key:
[1] = Molar enthalpy of transition or fusion; conditions: Adiabatic calorimetry
[2] = for molar entropy: 101.33 kPa, Vacuum adiabatic calorimetry; for Triple point temperature / Glass transition temperature: Adiabatic calorimetry

CCCCn1cc[n+](C)c1.[I-] [1-butyl-3-methylimidazolium iodide]
Conditions	Glass transition temperature, [2] [°C]	Molar enthalpy of transition or fusion, [1] [kcal/mol]	Triple point temperature, [2] [K]
Crystal	–	4.539	291.92
Glass	-66	–	–

molar entropy [J/K/mol], [2]
Conditions	Crystal	Glass	Liquid
0 K	–	15.2	–
5 K	0.279	15.7	–
10 K	2.27	18.7	–
15 K	6.48	24	–
20 K	12.19	30.7	–
25 K	18.74	38.1	–
30 K	25.76	46	–
35 K	32.98	54.1	–
40 K	40.24	62.1	–
45 K	47.47	70.1	–
50 K	54.62	77.9	–
60 K	68.59	93.1	–
70 K	82.02	107.7	–
80 K	94.91	121.6	–
90 K	107.3	135	–
100 K	119.2	147.9	–
110 K	130.6	160.2	–
120 K	141.7	172	–
130 K	152.3	183.5	–
140 K	162.6	194.6	–
150 K	172.6	205.3	–
160 K	182.3	215.8	–
170 K	191.8	226.1	–
180 K	201.1	236.1	–
190 K	210.2	246	–
200 K	219.2	255.8	–
210 K	228.1	–	266.8
220 K	236.8	–	280.1
230 K	245.5	–	292.9
240 K	254.1	–	305.3
250 K	262.7	–	317.3
260 K	271.2	–	328.9
270 K	279.8	–	340.1
280 K	288.5	–	351.1
290 K	297.2	–	361.9
291.92 K	298.8	–	363.9
298.15 K	–	–	370.4
300 K	–	–	372.3
310 K	–	–	382.6
320 K	–	–	392.6
330 K	–	–	402.4
340 K	–	–	412.1
350 K	–	–	421.5
360 K	–	–	430.9
370 K	–	–	440

CCC[n+]1ccn(C)c1.[Br-] [1-methyl-3-propylimidazolium bromide]
Conditions	Glass transition temperature, [2] [°C]	Molar enthalpy of transition or fusion, [1] [kcal/mol]	Triple point temperature, [2] [K]
Crystal 2	–	4.567	309.54
Glass	-60	–	–

molar entropy [J/K/mol], [2]
Conditions	Crystal 2	Glass	Liquid
0 K	–	15.3	–
5 K	0.097	15.6	–
10 K	0.884	17.7	–
15 K	3.03	21.6	–
20 K	6.53	26.8	–
25 K	11.08	32.9	–
30 K	16.39	39.5	–
35 K	22.19	46.3	–
40 K	28.28	53.3	–
45 K	34.52	60.2	–
50 K	40.8	67.1	–
60 K	53.3	80.6	–
70 K	65.48	93.6	–
80 K	77.24	106.1	–
90 K	88.54	118.1	–
100 K	99.4	129.6	–
110 K	109.8	140.6	–
120 K	119.9	151.2	–
130 K	129.6	161.4	–
140 K	139	171.3	–
150 K	148	180.8	–
160 K	156.9	190.2	–
170 K	165.5	199.3	–
180 K	173.9	208.2	–
190 K	182.2	217	–
200 K	190.2	225.6	–
210 K	198.2	234.3	–
220 K	206.1	–	244.9
230 K	213.8	–	256.5
240 K	221.5	–	267.7
250 K	229.2	–	278.5
260 K	236.8	–	289
270 K	244.4	–	299.2
280 K	252.1	–	309.1
290 K	259.9	–	318.8
298.15 K	266.3	–	326.6
300 K	–	–	328.3
309.54 K	275.4	–	337.2
310 K	–	–	337.6
320 K	–	–	346.7
330 K	–	–	355.6
340 K	–	–	364.4
350 K	–	–	373
360 K	–	–	381.5
370 K	–	–	389.8
